Tests used:
Type in all cases: cell-based
[1] = target: T1, urate transporter 1 (URAT1) (Homo sapiens, UniProt Q96S37); experiment: [[…]-14C]uric acid uptake in URAT1-transfected HEK293/PDZK1 cells, single concentration […]; conditions: read-out: Urate Uptake (% of Control)
T1 construct: gene SLC22A12; human URAT1 cDNA in pCMV-SPORT6, transiently transfected into HEK293/PDZK1 cells
T1 sequence (Q96S37 1-553): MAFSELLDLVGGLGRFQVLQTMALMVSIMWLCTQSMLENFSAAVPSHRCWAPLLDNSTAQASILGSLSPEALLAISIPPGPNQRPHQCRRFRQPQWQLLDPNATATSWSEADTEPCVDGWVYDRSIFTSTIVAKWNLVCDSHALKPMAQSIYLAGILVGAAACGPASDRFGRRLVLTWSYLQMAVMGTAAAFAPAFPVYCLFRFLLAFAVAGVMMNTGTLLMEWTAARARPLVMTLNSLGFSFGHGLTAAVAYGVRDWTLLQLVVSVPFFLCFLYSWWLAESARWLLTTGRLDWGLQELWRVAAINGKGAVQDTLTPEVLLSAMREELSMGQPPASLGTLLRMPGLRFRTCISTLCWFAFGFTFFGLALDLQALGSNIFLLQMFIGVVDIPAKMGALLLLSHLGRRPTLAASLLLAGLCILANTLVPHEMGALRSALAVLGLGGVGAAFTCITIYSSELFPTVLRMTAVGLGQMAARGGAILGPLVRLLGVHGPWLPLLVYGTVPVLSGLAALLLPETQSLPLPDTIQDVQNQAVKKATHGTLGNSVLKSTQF

[2] = target: T1, urate transporter 1 (URAT1); experiment: radiolabelled uptake, […], Lineweaver-Burk plot
[3] = target: T1, urate transporter 1 (URAT1); experiment: [[…]-14C]uric acid uptake in URAT1-transfected HEK293/PDZK1 cells, mock-subtracted; Lineweaver-Burk kinetics

With `CC(C)=CCc1c(O)ccc2ccc(=O)oc12` [osthenol] as the compound, how does the remaining activity at 100 µM [1] read?
The remaining activity at 100 µM was 31 ± 4%.

How did the “radiolabelled uptake, 25-200 μM, Lineweaver-Burk plot” value [2] turn out when `O=c1[nH]c(=O)c2[nH]c(=O)[nH]c2[nH]1` [uric acid] was run?
Its value is “The uptakes of uric acid into the cells (V) were measured, and a Lineweaver–Burk plot was made”.

With `COc1ccc2ccc(=O)oc2c1CC=C(C)C` [compound 1, osthol] as the compound, how does the IC50 [3] read?
The IC50 was 78.8 µM.

Reference: PMC6278453, “Effects of Osthol Isolated from Cnidium monnieri Fruit on Urate Transporter 1” (Molecules, 2018)
